We go through three compounds from US20120196057A1 (priority 2008, published 2012).

“Also recorded” adds a separate entry of the source.

One series deals with gastrocnemius muscle. Briefly: Gene chip analysis in hindlimb unloading (tail suspension) skeletal muscle atrophy model. Format: in vivo, BalbC mice. The note with it: for Differentially expressed probe sets for genes between HU and HU + treatment group: 50 μg/kg/bw (combo 50+50) by gavage twice, 7 days hindlimb unloading, Affymetrix Mouse 430-2; for Expression of Myosin, light chain kinase (Mylk) / Expression of Tropomyosin 1 (Tpm1) / Expression of Titin (Tnt) / Expression of Myomesin 1 (Myom 1) / Number of differentially expressed probe sets also differentially expressed in 25-OH D3+Vitamin D3 group / Share of differentially expressed probe sets also differentially expressed in 25-OH D3+Vitamin D3 group: gastrocnemius muscle; for Expression of Myosin, light chain kinase (Mylk): HU control 749; for Expression of Tropomyosin 1 (Tpm1): HU control 1179; for Expression of Titin (Tnt): HU control 11353; for Expression of Myomesin 1 (Myom 1): HU control 84697; for Differentially expressed muscle genes compared to HU: selected skeletal muscle genes, list wrapped over table lines; for Number of differentially expressed probe sets also differentially expressed in 25-OH D3+Vitamin D3 group / Share of differentially expressed probe sets also differentially expressed in 25-OH D3+Vitamin D3 group: vs HU control. The source says:
Initially this model was established in rats for simulating spaceflight in humans and is commonly used in other scientific fields to study the loss of skeletal muscle mass or bone. The results are considered indicative of human conditions such as sarcopenia (degenerative loss of skeletal muscle mass and strength during the process of ageing) or immobilization of skeletal muscle (e.g. after prolonged bed rest due to fractures, surgery or trauma). Methods For our study, nine month old BalbC female mice were randomized at the beginning of the study into four groups with 10 animals per group • 1. […] The animals were placed in special cages for duration of seven days; all mice were housed separately and had free access to feed and water ad libidum. All animals were treated twice by gavage at the beginning of the experiment and 3 hours before the section: 1. the control group received vehicle (gelatine) […] At the end of the study the gastrocnemius muscle was taken out and directly frozen in liquid nitrogen for further analysis. […] Total RNA was isolated using the commonly used Trizol protocol. The RNA was quantified by using spectrophotometric analysis. The integrity of total RNA samples was also assessed qualitatively on an Agilent 2100 Bioanalyzer. RNA was then prepared for the one cycle cDNA synthesis. A poly-A RNA control is used for this step to provide exogenous positive controls to monitor the entire eukaryotic target labelling process. The first cDNA synthesis is done, and after the second strand cDNA synthesis the cDNA is cleaned up of double-stranded cDNA. A biotin labelled cRNA is then synthesised, cleaned up and quantified using a spectrophotometer at 260/280 nm. It is important that cRNA target is fragmented before hybridization onto a GeneChip probe arrays to obtain optimal assay sensitivity. After fragmentation the probes are hybridized on the chips (Affymetrix Mouse 430-2 chips). The chips are washed and stained in the fluidics station of Affymetrix and scanned in the gene chip scanner. The data is then transferred from the scanner for further analysis using software from Genedata (Expressionist 5.0: […] Analyst). Data interpretation and pathway analysis was done with the online version of the GeneGo Metacore package ([…] evaluates microarray data for quality issues and flags problematic measurements. It provides a set of normalization algorithms and validated condensing methods to automatically pre-process and summarize raw microarray data for subsequent statistical analysis.

Series [1] can be described thus: Clinical trial: plasma 25-OH D after single oral bolus of 25-OH D3, Vitamin D3 or both. In kind it is in vivo, human. The note with it: single oral bolus 140 μg (combo 140 μg + 140 μg). The text has this:
Each group included five subjects. They are followed for four months in Zurich, Switzerland during the winter.
Equal quantities of both substances were investigated. […] As the maximum pre-existing baseline concentration of 25-OH D will be 50 nmol/L, it is not anticipated that subjects will approach the range where disturbance in Ca^2+ homeostasis has been observed.
Each dosage is consumed orally at breakfast. The duration of the study is four months for the “Daily” and “Weekly” groups. Subjects enrolled in the “Bolus” group consume orally a single dosage at the second study visit and are further followed-up for four months.

For series [2] the following is noted: ingestion of 250 μg/day as a dietary supplement; cited from earlier work.

`C=C1CC[C@H](O)C/C1=C/C=C1\CCC[C@]2(C)[C@@H]([C@H](C)CCCC(C)C)CC[C@@H]12` [Vitamin D3, cholecalciferol]: in the series with gastrocnemius muscle, the “Differentially expressed probe sets for genes between HU and HU + treatment group” value is 385; the “Expression of Myosin, light chain kinase (Mylk)” value was 786; the “Expression of Tropomyosin 1 (Tpm1)” value was determined as 2199; the “Expression of Titin (Tnt)” value was 11354. Moreover, in the series on gastrocnemius muscle, the “Expression of Myomesin 1 (Myom 1)” value was 99099; the “Differentially expressed muscle genes compared to HU” value is “Desmin; myoneurin; tropomyosin 1, alpha; tropomyosin 2,; also recorded: beta; X-linked myotubular myopathy gene 1”; the “Number of differentially expressed probe sets also differentially expressed in 25-OH D3+Vitamin D3 group” value worked out at 177; the “Share of differentially expressed probe sets also differentially expressed in 25-OH D3+Vitamin D3 group” value is approximately 46%.

Take `C=C1CC[C@H](O)C/C1=C/C=C1\CCC[C@]2(C)[C@@H]([C@H](C)CCCC(C)(C)O)CC[C@@H]12` [25-OH D3, 25-hydroxyvitamin D3]: in the series with gastrocnemius muscle, the “Differentially expressed probe sets for genes between HU and HU + treatment group” value came to 1263; the “Expression of Myosin, light chain kinase (Mylk)” value amounted to 994; the “Expression of Tropomyosin 1 (Tpm1)” value turned out to be 2110; the “Expression of Titin (Tnt)” value is on record as 13786. Further, in the series with gastrocnemius muscle, the “Expression of Myomesin 1 (Myom 1)” value was 105393; the “Differentially expressed muscle genes compared to HU” value is “alkali, smooth muscle and non-muscle; myosin, light; also recorded: polypeptide kinase; myotubularin related protein 2;; also recorded: myotubularin related protein 4; myotubularin related; also recorded: protein 6; tropomyosin 2, beta; X-linked myotubular; also recorded: myopathy gene 1; also recorded: Desmin; dystonin; myocyte enhancer factor 2A;; also recorded: myoneurin; myosin VIIb; myosin, light polypeptide 6,”; the “Number of differentially expressed probe sets also differentially expressed in 25-OH D3+Vitamin D3 group” value came out at 769; the “Share of differentially expressed probe sets also differentially expressed in 25-OH D3+Vitamin D3 group” value is reported as approximately 61%. Besides, in series [1], the “Time period with increase in plasma 25-OH D levels by at least 30 nmol/L” value lay within 4 to 49 h.

Turning to Vitamin D, the “Blood concentration of 25-hydroxyvitamin D resulting from ingestion” value in series [2] is “about 200 nmol/L”. In addition, in series [1], the “Time period with increase in plasma 25-OH D levels by at least 30 nmol/L” value is listed as “no increase of that magnitude”.
